# Results taken from US20220387457A1 (Qlaris Bio, Inc., priority 2020, published 2022).
# Legend:
# [1] = Plasma pharmacokinetics, 28-day topical ophthalmic dosing in beagle dogs; settings: dog, in vivo
# Protocol: In the study, dogs (3 males and 3 females) received bilateral daily topical administration of 40 μL/eye of 2.0%, 4.0%, or 8.0% as measured in mg/mL (equivalent to 0.8, 1.6, or 3.2 mg CKLP1 per eye) of CKLP1 in phosphate buffered saline. Based on an average male dog weight of 7.9 kg at the start of the study, these doses were equivalent to 0.20 mg/kg, 0.41 mg/kg, or 0.81 mg/kg and based on an average female dog weight of 6.0 kg at the start of the study, these doses were equivalent to 0.27 mg/kg, 0.53 mg/kg, or 1.07 mg/kg. Blood was collected for toxicokinetic analysis pre-dose and at 1, 2, 4, 8, 12, and 24 hours post dosing on days 1 and 28. In addition, 2 animals of each gender were allowed 336 hours (14 days) of recovery time following the final dose, at which point final blood samples were obtained.
# [2] = Plasma pharmacokinetics of CKLP1 and levcromakalim after topical dosing in hound dogs; assay type: in vivo, hound dog; settings: for AUC(0-t) / Cmax / Tmax / half-life: plasma
# Protocol: To assess the pharmacokinetic parameters, hound dogs (n=3) were treated with 50 μL topical ocular administration of 10 mM CKLP1 or vehicle (PBS) (n=2) in both eyes, once daily for eight days. Blood (approximately 3 mL) was collected in heparin blood collection tubes at eight different time points (5 minutes, 15 minutes, 30 minutes, 60 minutes, 2 hours, 4 hours, 8 hours and 24 hours) following treatment on days 1, 4 and 8. Plasma was separated from the blood by centrifugation at 2000 rpm for 5 minutes.
# Immediately prior to analysis, tissues were thawed and their weight was measured. PBS was added at double the tissue volume homogenized in a rotor stator homogenizer for 30 seconds. […] Detection was accomplished using positive electrospray ionization with multiple-reaction monitoring (MRM). […] Data were acquired and analyzed using Waters MassLynx v4.1 software.
# [3] = female, beagle, topical or ocular, 0.27 mg/kg
# [4] = female, beagle, topical or ocular, 1.07 mg/kg
# [5] = female, beagle, topical or ocular, […]
# [6] = male, beagle, topical or ocular, 0.2 mg/kg
# [7] = male, beagle, topical or ocular, 0.41 mg/kg
# [8] = male, beagle, topical or ocular, 0.81 mg/kg
# [9] = CKLP1, topical 10 mM CKLP1 once daily, Day 1
# [10] = CKLP1, topical 10 mM CKLP1 once daily, Day 4
# [11] = CKLP1, topical 10 mM CKLP1 once daily, Day 8
# [12] = hound, dog, topical or ocular, 10 mM CKLP1, 50 µL in each of both eyes, CKLP1, topical 10 mM CKLP1 once daily, Day 1
# [13] = hound, dog, topical or ocular, 10 mM CKLP1, 50 µL in each of both eyes, CKLP1, topical 10 mM CKLP1 once daily, Day 4
# [14] = hound, dog, topical or ocular, 10 mM CKLP1, 50 µL in each of both eyes, CKLP1, topical 10 mM CKLP1 once daily, Day 8
smiles,measurement,setting,value
CC1(C)Oc2ccc(C#N)cc2[C@@H](N2CCCC2=O)[C@@H]1OP(=O)(O)O [CKLP1],half-life,"[1]; beagle, mean T1/2 of CKLP1",3.32 to 6.18 h
same,half-life,"[1]; beagle, terminal elimination half-life",3 to 6 h
same,concentration at 336 h,"[1]; both sexes, beagle",< 2 ng/mL
same,"predose levels of CKLP1 on day 28, times lower than peak plasma concentrations","[1]; both, beagle",16-25 times
same,accumulation of CKLP1 on day 28 relative to day 1,[1],no accumulation
same,time of Cmax of CKLP1,[1],1 to 2 h
same,AUC0-last,[1]; [3],545 ng·h/mL
same,AUC(0-inf),[1]; [3],660 ng·h/mL
same,Cmax,[1]; [3],80.2 ng/mL
same,Tmax,[1]; [3],2 h
same,t1/2,[1]; [3],3.68 h
same,AUC(0-t),"[1]; female, beagle, topical or ocular, 0.27 mg/kg, AUC0-last",496 ng·h/mL
same,Cmax,"[1]; female, beagle, topical or ocular, 0.27 mg/kg, Cmax",55.5 ng/mL
same,half-life,"[1]; female, beagle, topical or ocular, 0.27 mg/kg, t1/2",4.12 h
same,AUC0-last,[1]; [4],1200 ng·h/mL
same,AUC(0-inf),[1]; [4],1860 ng·h/mL
same,Cmax,[1]; [4],139 ng/mL
same,Tmax,[1]; [4],2 h
same,t1/2,[1]; [4],5.15 h
same,AUC(0-t),"[1]; female, beagle, topical or ocular, 1.07 mg/kg, AUC0-last",1480 ng·h/mL
same,Cmax,"[1]; female, beagle, topical or ocular, 1.07 mg/kg, Cmax",156 ng/mL
same,half-life,"[1]; female, beagle, topical or ocular, 1.07 mg/kg, t1/2",4.92 h
same,AUC0-last,[1]; [5],1750 ng·h/mL
same,Tmax,[1]; [5],2 h
same,half-life,"[1]; female, beagle, topical or ocular, […], t1/2",6.18 h
same,AUC0-last,[1]; [6],272 ng·h/mL
same,AUC(0-inf),[1]; [6],299 ng·h/mL
same,Cmax,[1]; [6],47.0 ng/mL
same,Tmax,[1]; [6],1 h
same,t1/2,[1]; [6],3.44 h
same,AUC(0-t),"[1]; male, beagle, topical or ocular, 0.2 mg/kg, AUC0-last",231 ng·h/mL
same,Cmax,"[1]; male, beagle, topical or ocular, 0.2 mg/kg, Cmax",36.5 ng/mL
same,half-life,"[1]; male, beagle, topical or ocular, 0.2 mg/kg, t1/2",3.69 h
same,AUC0-last,[1]; [7],381 ng·h/mL
same,AUC(0-inf),[1]; [7],571 ng·h/mL
same,Cmax,[1]; [7],57.3 ng/mL
same,Tmax,[1]; [7],1 h
same,t1/2,[1]; [7],3.32 h
same,AUC(0-t),"[1]; male, beagle, topical or ocular, 0.41 mg/kg, AUC0-last",520 ng·h/mL
same,Cmax,"[1]; male, beagle, topical or ocular, 0.41 mg/kg, Cmax",73.7 ng/mL
same,half-life,"[1]; male, beagle, topical or ocular, 0.41 mg/kg, t1/2",4.26 h
same,AUC0-last,[1]; [8],1260 ng·h/mL
same,AUC(0-inf),[1]; [8],1580 ng·h/mL
same,Tmax,[1]; [8],2 h
same,t1/2,[1]; [8],5.08 h
same,AUC(0-t),"[1]; male, beagle, topical or ocular, 0.81 mg/kg, AUC0-last",1520 ng·h/mL
same,Cmax,"[1]; male, beagle, topical or ocular, 0.81 mg/kg, CKLP1, Male, topical 8.0% CKLP1 daily, Day 1, read-out: Cmax",166 ng/mL
same,Cmax,"[1]; male, beagle, topical or ocular, 0.81 mg/kg, CKLP1, Male, topical 8.0% CKLP1 daily, Day 28, read-out: Cmax",147 ng/mL
same,half-life,"[1]; male, beagle, topical or ocular, 0.81 mg/kg, t1/2",4.82 h
same,Cmax,"[1]; male, beagle, topical or ocular, 8 %, day 28, males, read-out: mean Cmax at NOAEL",147 ng/mL
same,AUC(0-t),"[1]; male, beagle, topical or ocular, 8.0%, day 28, males, read-out: mean AUC Tlast at NOAEL",1260 ng·h/mL
same,Clast,[2]; [9],2.6 ng/mL
same,Tlast,[2]; [9],480 min
same,Clast,[2]; [10],1.4 ng/mL
same,Tlast,[2]; [10],1440 min
same,Clast,[2]; [11],0.3 ng/mL
same,Tlast,[2]; [11],1450 min
same,AUC(0-t),[2]; [12],72.9 ng·h/mL
same,Cmax,[2]; [12],10.3 ng/mL
same,Tmax,"[2]; hound, dog, topical or ocular, 10 mM CKLP1, 50 µL in each of both eyes, CKLP1, topical 10 mM CKLP1 once daily, Day 1, read-out: Tmax (converted)",1 h
same,AUC(0-t),[2]; [13],103 ng·h/mL
same,Cmax,[2]; [13],12.2 ng/mL
same,Tmax,"[2]; hound, dog, topical or ocular, 10 mM CKLP1, 50 µL in each of both eyes, CKLP1, topical 10 mM CKLP1 once daily, Day 4, read-out: Tmax (converted)",2 h
same,AUC(0-t),[2]; [14],86.7 ng·h/mL
same,Cmax,[2]; [14],8.9 ng/mL
same,Tmax,"[2]; hound, dog, topical or ocular, 10 mM CKLP1, 50 µL in each of both eyes, CKLP1, topical 10 mM CKLP1 once daily, Day 8, read-out: Tmax (converted)",1 h
same,half-life,"[2]; hound, dog, topical or ocular, 10 mM, CKLP1, topical 10 mM CKLP1 once daily, Day 1",3.01 h
same,half-life,"[2]; hound, dog, topical or ocular, 10 mM, CKLP1, topical 10 mM CKLP1 once daily, Day 4",7.53 h
same,half-life,"[2]; hound, dog, topical or ocular, 10 mM, CKLP1, topical 10 mM CKLP1 once daily, Day 8",4.23 h
same,Tmax,"[2]; hound, dog, topical or ocular, 10 mM, topical 10 mM CKLP1, read-out: time of maximum concentration (Tmax) of CKLP1",≤ 1 h
same,AUC,"[2]; hound, dog, topical or ocular, CKLP1 in plasma, topical 10 mM CKLP1",87.7 ng·h/mL
same,AUC of CKLP1 relative to levcromakalim,[2]; topical 10 mM CKLP1,22.4 fold
same,Maximum concentration of CKLP1 in plasma,"[2]; topical 10 mM CKLP1, mean of days 1, 4, 8",10.5 ± 1.7 ng/mL
same,"conversion of CKLP1 to levcromakalim, estimate from blood concentrations",[2]; topical CKLP1,10%
